These results are taken from patent US5948775A, “2- or 3-(substitutedaminoalkoxyphenyl)quinazolin-4-ones” (American Home Products Corporation, priority 1998, dated 1999).

Where two headings read alike, the source gives them in different places.

One assay relates to uterus. The following applies: background statement; cited from earlier work.
Another assay relates to Ishikawa cells. In words: Ishikawa Cell Alkaline Phosphatase Assay. Conditions: Homo sapiens, 48 h. Format: cell-based. The protocol:
Ishikawa Cell Alkaline Phosphatase Assay
Cell Maintenance and Treatment:
Ishikawa cells were maintained in DMEM/F12 (50%:50%) containing phenol red+10% fetal bovine serum and the medium was supplemented with 2 mM Glutamax, 1% Pen/Strap and 1 mM sodium pyruvate. Five days prior to the beginning of each experiment (treatment of cells) the medium was changed to phenol red-free DMEM/F12+10% dextran coated charcoal stripped serum. On the day before treatment, cells were harvested using 0.5% trypsin/EDTA and plated at a density of 5×10^4 cells/well in 96-well tissue culture plates. […] Cells were treat for 48 h prior to assay. […] Sample population for at each dose was n=8.
Alkaline Phosphatase Assay:
At the end of 48 h the media is aspirated and cells are washed three times with phosphate buffered saline (PBS). 50 μL of lysis buffer (0.1 M Tris-HCl, pH 9.8, 0.2% Triton X-100) is added to each well. Plates are placed at -80° C. for a minimum of 15 minutes. Plates are thawed at 37° C. followed by the addition of 150 μL of 0.1 M Tris-HCl, pH 9.8, containing 4 mM para-nitrophenylphosphate (pNPP) to each well (final concentration, 3 mM pNPP).
Absorbance and slope calculations were made using the KineticCalc Application program (Bio-Tek Instruments, Inc., Winooski, Vt.). Results are expressed as the mean±S.D. of the rate of enzyme reaction (slope) averaged over the linear portion of the kinetic reaction curve (optical density readings every 5 minutes for 30 minutes absorbance reading).
A description of these methods is described by Holinka, C.

The test system of another assay is bone. Conditions: background statement; cited from earlier work.
The next assay deals with T1, estrogen receptor (Homo sapiens, UniProt P03372).
T1 construct: made in house; host or cells: Chinese Hamster Ovary (CHO) cells, ribosome-free cytosol
T1 sequence (P03372 1-595): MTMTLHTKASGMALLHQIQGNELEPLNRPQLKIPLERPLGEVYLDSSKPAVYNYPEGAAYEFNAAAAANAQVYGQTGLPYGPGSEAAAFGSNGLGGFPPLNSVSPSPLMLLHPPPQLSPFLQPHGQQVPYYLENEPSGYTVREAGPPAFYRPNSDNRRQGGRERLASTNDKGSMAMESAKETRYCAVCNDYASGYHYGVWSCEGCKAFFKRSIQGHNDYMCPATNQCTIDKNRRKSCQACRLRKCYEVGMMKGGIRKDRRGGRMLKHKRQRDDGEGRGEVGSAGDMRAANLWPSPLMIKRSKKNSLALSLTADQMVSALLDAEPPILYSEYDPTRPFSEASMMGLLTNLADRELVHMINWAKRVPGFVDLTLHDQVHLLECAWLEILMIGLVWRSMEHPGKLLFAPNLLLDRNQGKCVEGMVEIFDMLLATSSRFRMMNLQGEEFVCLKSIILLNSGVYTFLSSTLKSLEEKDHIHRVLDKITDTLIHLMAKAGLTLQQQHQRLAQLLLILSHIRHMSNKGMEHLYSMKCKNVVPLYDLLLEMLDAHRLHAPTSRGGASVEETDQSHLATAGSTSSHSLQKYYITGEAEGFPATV
Briefly: In vitro estrogen receptor binding assay (competition with [^3 H]-17-β-estradiol). The protocol: Cells were harvested by scraping the surface and then the cell suspension was placed on ice. […] The cytosol was then frozen and stored at -80° C. Protein concentration of the cytosol was estimated using the BCA assay with reference standard protein.
The plate was incubated at room temperature for 2.5 h. […] Samples were counted to 2% or 10 minutes, whichever occurs first. […] Also, wells containing radioactivity but no cytosol were processed with charcoal to estimate unremovable DPM of [^3 H]
For a description of these methods, see Hulme, E. C., ed. 1992. Receptor-Ligand Interactions: A Practical Approach. IRL Press, New York.(see especially chapter 8).

The target in the next assay is T2, human estrogen receptor (Homo sapiens, UniProt P03372).
T2 construct: expressed in transfected cells
In words: 2X VIT ERE Transfection Assay (luciferase, CHO cells stably transfected with human estrogen receptor). Conditions: 24 h. The class given is cell-based. The protocol:
2X VIT ERE Transfection Assay
Cell Maintenance and Treatment
Chinese Hamster Ovary cells (CHO) which had been stably transfected with the human estrogen receptor were maintained in DMEM+10% fetal bovine serum (FBS). 48 h prior to treatment the growth medium was replaced with DMEM lacking phenol red+10% dextran coated charcoal stripped FBS (treatment medium). Cells were plated at a density of 5000 cells/well in 96-well plates containing 200 μL of medium/well.
Calcium Phosphate Transfection
Reporter DNA (Fromega plasmid pGL2 containing two tandem copies of the vitellogenin ERE in front of the minimal thymidine kinase promoter driving the luciferase gene) was combined with the β-galactosidase expression plasmid pCH110 (Pharmacia) and carrier DNA (pTZ18U) in the following ratio:
20 μg of DNA/1 mL of transfection solution
The DNA (20 μg) was dissolved in 500 μL of 250 mM sterile CaCl2 and added dropwise to 500 μL of 2X HeBS (0.28 M NaCl, 50 mM HEPES, 1.5 mM Na2 HPO4, pH 7.05) and incubated at room temperature for 20 minutes. 20 μL of this mixture was added to each well of cells and remained on the cells for 16 h. […] Each treatment condition was performed on 8 wells (n=8) which were incubated for 24 h prior to the luciferase assay.
After 24 h exposure to compounds, the media was removed and each well washed with 2X with 125 μL of PBS lacking Mg^++ and Ca^++. […] The luciferan substrate (Promega) was added in 100 μL aliquots to each well automatically by the luminometer and the light produced (relative light units) was read 10 seconds after addition.
To the remaining 5 μL of lysate 45 μL of PBS was added. […] The plates were analyzed on a Molecular Devices specrophotometric plate reader at 410 nm. […]
The luciferase data was generated as relative light units (RLUs) accumulated during a 10 second measurement and automatically transferred to a JMP (SAS Inc.) file where background RLUs were subtracted. […] The mean and standard deviations were determined from a n=8 for each treatment. […]

Setting [1] is: Test articles at 10^-6 M, alone, percent of response related to 1 nM 17β-estradiol (control), read-out: % Activation.
Where [2] appears, read: Competition With 17-β-estradiol (0.8 nM), CHO cell cytosol.

As to `O=C(c1ccc(OCCN2CCCCC2)cc1)c1c(-c2ccc(O)cc2)sc2cc(O)ccc12` [Raloxifene], the “effect on the uterus” value in the assay on uterus is “stimulate uterine growth in animal models to a lesser degree than Tamoxifen”. Further, the activation at 1 µM in the assay with Ishikawa cells (setting [1]) came out at 5%. Moreover, the effect on bone result in the assay with bone was “sparing bone”.
In the case of `CC/C(=C(\c1ccccc1)c1ccc(OCCN(C)C)cc1)c1ccccc1` [Tamoxifen], the “effect on the uterus” value with uterus is on record as “partial agonist effects in the uterus”. The same molecule gave an activation at 1 µM with Ishikawa cells of 0%. Moreover, the effect on bone result in the assay on bone is given as “increase bone mass”.
As a reminder, the IC50 is the concentration at which inhibition is half-maximal. On to `O=c1c2cccc(O)c2nc(-c2ccc(O)cc2)n1-c1ccc(OCCN2CCCCC2)cc1` [Example 21, 8-Hydroxy-2-(4-hydroxy-phenyl)-3-[4-(2-piperidin-1-yl-ethoxy)-phenyl]-3H-quinazolin-4-one], for which the values for the activation at 1 µM in the assay with Ishikawa cells (setting [1]) and at human estrogen receptor were 0% and 6%, respectively. Further, the IC50 result on estrogen receptor (setting [2]) is reported as “Binding not detected at upper limit of assay”.
In the case of `O=c1c2cccc(O)c2nc(-c2ccc(OCCN3CCCCC3)cc2)n1-c1ccc(O)cc1` [Example 16, 8-Hydroxy-3-(4-hydroxy-phenyl)-2-{4-[2-(piperidin-1-yl)-ethoxy]-phenyl}-3H-quinazolin-4-one], the activation at 1 µM with Ishikawa cells (setting [1]) worked out at 0%; on human estrogen receptor, 14%. The IC50 result on estrogen receptor (setting [2]) is on record as “Binding not detected at upper limit of assay”.
For `O=c1c2ccc(O)cc2nc(-c2ccc(O)cc2)n1-c1ccc(OCCN2CCCCC2)cc1` [Example 9, 7-Hydroxy-2-(4-hydroxy-phenyl)-3-{4-[2-(piperidin-1-yl)-ethoxy]-phenyl}-3H-quinazolin-4-one], the activation at 1 µM worked out at 0% in the assay on Ishikawa cells (setting [1]) and 72% at human estrogen receptor. For the same molecule, the 50% inhibitory concentration (IC50) at estrogen receptor (read-out: IC50) turned out to be 6.5 µM.
`C[C@]12CC[C@@H]3c4ccc(O)cc4CC[C@H]3[C@@H]1CC[C@@H]2O` [17-β-estradiol, reference compound]: in the assay on Ishikawa cells (setting [1]), the activation at 1 µM was 100%.
